Results: US10533010B2, “Substituted indole Mcl-1 inhibitors” (Vanderbilt University, priority 2014, dated 2020)

target: recombinant Mcl-1 (residues 172-327) (Homo sapiens (Human), UniProt Q07820); assay: Fluorescence polarization anisotropy competition assay (FITC-Bak or FITC-Bim BH3 peptide) with Mcl-1; format: binding; conditions: Table 2; Ki bins given in nM; FITC-Bak or FITC-Bim peptide competition; Ki converted from IC50; read-out: Ki for Inhibition of Mcl-1
Sequence (Q07820 172-327): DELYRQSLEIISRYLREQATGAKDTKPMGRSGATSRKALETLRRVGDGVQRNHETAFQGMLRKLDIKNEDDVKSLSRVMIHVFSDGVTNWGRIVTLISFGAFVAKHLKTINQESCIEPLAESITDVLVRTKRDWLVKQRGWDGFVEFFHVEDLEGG

SMILES	Ki [nM]
Cc1cc(OCCCc2c3n(c4c(-c5c(C)nn(C)c5C)c(Cl)ccc24)C[C@@H](C)N(c2ccc(C(=O)O)cc2)C3=O)cc(C)c1Cl [I-156, (R)-4-(7-chloro-10-(3-(4-chloro-3,5-dimethylphenoxy)propyl)-3-methyl-1-oxo-6-(1,3,5-trimethyl-1H-pyrazol-4-yl)-3,4-dihydropyrazino[1,2-a]indol-2(1H)-yl)benzoic acid]	< 50
Cc1cc(OCCCc2c3n(c4c(-c5c(C)nn(C)c5C)c(Cl)ccc24)C[C@@H](C)N(c2cccc(C(=O)O)c2)C3=O)cc(C)c1Cl [I-157, (R)-3-(7-chloro-10-(3-(4-chloro-3,5-dimethylphenoxy)propyl)-3-methyl-1-oxo-6-(1,3,5-trimethyl-1H-pyrazol-4-yl)-3,4-dihydropyrazino[1,2-a]indol-2(1H)-yl)benzoic acid]	< 50
Cc1cc(OCCCc2c3n(c4c(-c5c(C)nn(C)c5C)c(Cl)ccc24)C[C@@H](C)N(c2ccc(C(=O)O)c4ncccc24)C3=O)cc(C)c1Cl [I-158, (R)-5-(7-chloro-10-(3-(4-chloro-3,5-dimethylphenoxy)propyl)-3-methyl-1-oxo-6-(1,3,5-trimethyl-1H-pyrazol-4-yl)-3,4-dihydropyrazino[1,2-a]indol-2(1H)-yl)quinoline-8-carboxylic acid]	< 50
Cc1cc(OCCCc2c3n(c4c(-c5c(C)nn(C)c5C)c(Cl)ccc24)C[C@@H](C)N(c2cc(C(=O)O)cc4c2ccn4C)C3=O)cc(C)c1Cl [I-159, (R)-4-(7-chloro-10-(3-(4-chloro-3,5-dimethylphenoxy)propyl)-3-methyl-1-oxo-6-(1,3,5-trimethyl-1H-pyrazol-4-yl)-3,4-dihydropyrazino[1,2-a]indol-2(1H)-yl)-1-methyl-1H-indole-6-carboxylic acid]	< 50
Cc1cc(OCCCc2c3n(c4c(-c5c(C)nn(C)c5C)c(Cl)ccc24)C[C@@H](C)N(c2cc(C(=O)O)c4ccn(C)c4c2)C3=O)cc(C)c1Cl [I-160, (R)-6-(7-chloro-10-(3-(4-chloro-3,5-dimethylphenoxy)propyl)-3-methyl-1-oxo-6-(1,3,5-trimethyl-1H-pyrazol-4-yl)-3,4-dihydropyrazino[1,2-a]indol-2(1H)-yl)-1-methyl-1H-indole-4-carboxylic acid]	< 50
Cc1cc(OCCCc2c3n(c4c(-c5c(C)nn(C)c5C)c(Cl)ccc24)CCN(c2ccc(C(=O)O)c4ncccc24)C3=O)cc(C)c1Cl [I-161, 5-(7-chloro-10-(3-(4-chloro-3,5-dimethylphenoxy)propyl)-1-oxo-6-(1,3,5-trimethyl-1H-pyrazol-4-yl)-3,4-dihydropyrazino[1,2-a]indol-2(1H)-yl)quinoline-8-carboxylic acid]	< 50
Cc1cc(OCCCc2c3n(c4c(-c5c(C)nn(C)c5C)c(Cl)ccc24)CCN(c2cc(C(=O)O)c4ccn(C)c4c2)C3=O)cc(C)c1Cl [I-162, 6-(7-chloro-10-(3-(4-chloro-3,5-dimethylphenoxy)propyl)-1-oxo-6-(1,3,5-trimethyl-1H-pyrazol-4-yl)-3,4-dihydropyrazino[1,2-a]indol-2(1H)-yl)-1-methyl-1H-indole-4-carboxylic acid]	< 50
Cc1cc(OCCCc2c3n(c4c(-c5c(C)nn(C)c5C)c(Cl)ccc24)CCN(c2cc(C(=O)O)cc4c2ccn4C)C3=O)cc(C)c1Cl [I-163, 4-(7-cholro-10-(3-(4-chloro-3,5-dimethylphenoxy)propyl)-1-oxo-6-(1,3,5-trimethyl-1H-pyrazol-4-yl)-3,4-dihydropyrazino[1,2-a]indol-2(1H)-yl)-1-methyl-1H-indole-6-carboxylic acid]	< 50
Cc1cc(OCCCc2c3n(c4c(-c5c(C)nn(C)c5C)c(Cl)ccc24)C(C)[C@@H](C)N(c2ccc(C(=O)O)c4ncccc24)C3=O)cc(C)c1Cl (stereo partly drawn) [I-164, 5-((3R)-7-chloro-10-(3-(4-chloro-3,5-dimethylphenoxy)propyl)-3,4-dimethyl-1-oxo-6-(1,3,5-trimethyl-1H-pyrazol-4-yl)-3,4-dihydropyrazino[1,2-a]indol-2(1H)-yl)quinoline-8-carboxylic acid]	51 to 100
Cc1cc(OCCCc2c3n(c4c(-c5c(C)nn(C)c5C)c(Cl)ccc24)[C@@H](C)CN(c2cccc(C(=O)O)c2)C3=O)cc(C)c1Cl [I-165, (S)-3-(7-chloro-10-(3-(4-chloro-3,5-dimethylphenoxy)propyl)-4-methyl-1-oxo-6-(1,3,5-trimethyl-1H-pyrazol-4-yl)-3,4-dihydropyrazino[1,2-a]indol-2(1H)-yl)benzoic acid]	< 50
Cc1cc(OCCCc2c3n(c4c(-c5c(C)nn(C)c5C)c(Cl)ccc24)[C@@H](C)CN(c2ccc(C(=O)O)cc2)C3=O)cc(C)c1Cl [I-166, (S)-4-(7-chloro-10-(3-(4-chloro-3,5-dimethylphenoxy)propyl)-4-methyl-1-oxo-6-(1,3,5-trimethyl-1H-pyrazol-4-yl)-3,4-dihydropyrazino[1,2-a]indol-2(1H)-yl)benzoic acid]	< 50
Cc1cc(OCCCc2c3n(c4c(-c5c(C)nn(C)c5C)c(Cl)ccc24)[C@@H](C)CN(c2cc(C(=O)O)cc4c2ccn4C)C3=O)cc(C)c1Cl [I-167, (S)-4-(7-chloro-10-(3-(4-chloro-3,5-dimethylphenoxy)propyl)-4-methyl-1-oxo-6-(1,3,5-trimethyl-1H-pyrazol-4-yl)-3,4-dihydropyrazino[1,2-a]indol-2(1H)-yl)-1-methyl-1H-indole-6-carboxylic acid]	< 50
Cc1cc(OCCCc2c3n(c4c(-c5c(C)nn(C)c5C)c(Cl)ccc24)[C@@H](C)CN(c2ccc(C(=O)O)c4ncccc24)C3=O)cc(C)c1Cl [I-168, (S)-5-(7-chloro-10-(3-(4-chloro-3,5-dimethylphenoxy)propyl)-4-methyl-1-oxo-6-(1,3,5-trimethyl-1H-pyrazol-4-yl)-3,4-dihydropyrazino[1,2-a]indol-2(1H)-yl)quinoline-8-carboxylic acid]	< 50
Cc1cc(OCCCc2c3n(c4c(-c5c(C)nn(C)c5C)c(Cl)ccc24)[C@@H](C)CN(c2cc(C(=O)O)c4ccn(C)c4c2)C3=O)cc(C)c1Cl [I-169, (S)-6-(7-chloro-10-(3-(4-chloro-3,5-dimethylphenoxy)propyl)-4-methyl-1-oxo-6-(1,3,5-trimethyl-1H-pyrazol-4-yl)-3,4-dihydropyrazino[1,2-a]indol-2(1H)-yl)-1-methyl-1H-indole-4-carboxylic acid]	< 50
Cc1cc(OCCCc2c3n(c4c(-c5c(C)nn(C)c5C)c(Cl)ccc24)[C@H](C)CN(c2cc(C(=O)O)cc4c2ccn4C)C3=O)cc(C)c1Cl [I-170, (R)-4-(7-chloro-10-(3-(4-chloro-3,5-dimethylphenoxy)propyl)-4-methyl-1-oxo-6-(1,3,5-trimethyl-1H-pyrazol-4-yl)-3,4-dihydropyrazino[1,2-a]indol-2(1H)-yl)-1-methyl-1H-indole-6-carboxylic acid]	< 50
Cc1cc(OCCCc2c3n(c4c(-c5c(C)nn(C)c5C)c(Cl)ccc24)[C@H](C)CN(c2cccc(C(=O)O)c2)C3=O)cc(C)c1Cl [I-171, (R)-3-(7-chloro-10-(3-(4-chloro-3,5-dimethylphenoxy)propyl)-4-methyl-1-oxo-6-(1,3,5-trimethyl-1H-pyrazol-4-yl)-3,4-dihydropyrazino[1,2-a]indol-2(1H)-yl)benzoic acid]	< 50
Cc1cc(OCCCc2c3n(c4c(-c5c(C)nn(C)c5C)c(Cl)ccc24)[C@H](C)CN(c2ccc(C(=O)O)cc2)C3=O)cc(C)c1Cl [I-172, (R)-4-(7-chloro-10-(3-(4-chloro-3,5-dimethylphenoxy)propyl)-4-methyl-1-oxo-6-(1,3,5-trimethyl-1H-pyrazol-4-yl)-3,4-dihydropyrazino[1,2-a]indol-2(1H)-yl)benzoic acid]	< 50
Cc1cc(OCCCc2c3n(c4c(-c5c(C)nn(C)c5C)c(Cl)ccc24)[C@H](C)CN(c2cc(C(=O)O)c4ccn(C)c4c2)C3=O)cc(C)c1Cl [I-174, (R)-6-(7-chloro-10-(3-(4-chloro-3,5-dimethylphenoxy)propyl)-4-methyl-1-oxo-6-(1,3,5-trimethyl-1H-pyrazol-4-yl)-3,4-dihydropyrazino[1,2-a]indol-2(1H)-yl)-1-methyl-1H-indole-4-carboxylic acid]	< 50
Cc1cc(OCCCc2c3n(c4c(-c5c(C)nn(C)c5C)c(Cl)ccc24)CCN(c2ccc(C(=O)O)cc2)C3=O)cc(C)c1Cl [I-176, 4-(7-chloro-10-(3-(4-chloro-3,5-dimethylphenoxy)propyl)-1-oxo-6-(1,3,5-trimethyl-1H-pyrazol-4-yl)-3,4-dihydropyrazino[1,2-a]indol-2(1H)-yl)benzoic acid]	< 50
Cc1cc(OCCCc2c(C(=O)Nc3ccnc(C(=O)O)c3)[nH]c3c(-c4c(C)nn(C)c4C)c(Cl)ccc23)cc(C)c1Cl [I-180, 4-(6-chloro-3-(3-(4-chloro-3,5-dimethylphenoxy)propyl)-7-(1,3,5-trimethyl-1H-pyrazol-4-yl)-1H-indole-2-carboxamido)picolinic acid]	< 50
Cc1cc(OCCCc2c(C(=O)Nc3ccc(C(=O)O)nc3)[nH]c3c(-c4c(C)nn(C)c4C)c(Cl)ccc23)cc(C)c1Cl [I-185, 5-(6-chloro-3-(3-(4-chloro-3,5-dimethylphenoxy)propyl)-7-(1,3,5-trimethyl-1H-pyrazol-4-yl)-1H-indole-2-carboxamido)picolinic acid]	< 50
Cc1cc(OCCCc2c(C(=O)Nc3cncc(C(=O)O)c3)[nH]c3c(-c4c(C)nn(C)c4C)cccc23)cc(C)c1Cl [I-186, 5-(3-(3-(4-chloro-3,5-dimethylphenoxy)propyl)-7-(1,3,5-trimethyl-1H-pyrazol-4-yl)-1H-indole-2-carboxamido)nicotinic acid]	< 50
Cc1cc(OCCCc2c(C(=O)N(C)c3cccc(C(=O)O)c3)[nH]c3c(-c4c(C)nn(C)c4C)c(Cl)ccc23)cc(C)c1Cl [I-187, 3-(6-chloro-3-(3-(4-chloro-3,5-dimethylphenoxy)propyl)-N-methyl-7-(1,3,5-trimethyl-1H-pyrazol-4-yl)-1H-indole-2-carboxamido)benzoic acid]	< 50
